In paper PMC8896685 (PLoS ONE, 2022):
Numbered stars: 1 amine (or outer) side, 2 acyl side, 3 side chain; on linkers, the order of the positions; unused ones are H or OH. Square brackets hold non-standard residues; d marks the D form. Side chains are listed from the residue outwards. Peptide text beside a SMILES is read from it. * marks the point of attachment. C18 diacid = O=C(O)CCCCCCCCCCCCCCCCC(=O)*; γGlu = O=C(O)[C@H](CCC(=O)[*:2])N[*:1]; Ac4c = NC1(C(=O)O)CCC1; AEEA = NCCOCCOCC(=O)O

Key:
DIO mice = test: Subchronic effect on glucose tolerance in DIO mice (IPGTT at steady state); type: in vivo, mouse; details: steady state; for Glucose tolerance (IPGTT) vs vehicle: p<0.001
Description: Compound exposure was measured by Luminescence Oxygen Channeling Immunoassay (LOCI). […] The three reactants were combined with the analyte and formed a two-sited immuno-complex. Illumination of the complex released singlet oxygen […] from the donor beads. They were channeled into the acceptor beads and triggered a chemiluminescence response which was measured in an EnVision plate reader (PerkinElmer). The amount of light was proportional to the concentration of the analyte. As calibrators, a dilution line of the relevant analyte in rat/mouse plasma was included.
Animals were fasted for 5–6 h prior to intraperitoneal (i.p.) injection of 2 g/kg glucose. Blood glucose was analysed on whole blood from the tail vein of conscious animals using a Biosen S-line glucose analyzer (EKF-diagonistic Gmbh, Barleben, Germany) by the glucose oxidase method, at basal and at t = 15, 30, 60, 90, 180 min post glucose administration.
DIO mice received s.c. injections once daily for 4–5 weeks. Animals were dosed at different times of day to allow for assessment of glucose tolerance and other metabolic parameters at same time of day but at different time points in relation to dosing. […] Body composition was assessed in conscious animals by Magnetic Resonance (MR) scanning prior to initiation of treatment and at the end of the treatment period. Steady-state plasma parameters were assessed in non-fasted animals. Additional DIO mice (n = 4) were included for verification of 24-h peptide exposure in steady state. The mice received s.c. doses daily for 2 weeks (13 days) with 3 nmol/kg NN1177; 5 nmol/kg NN1151 or 5 nmol/kg NN1359, where after plasma sampled after t = 5 h (NN1177) or 6 h (NN1151, NN1359), 10 h (all co-agonists) and 24 h (all co-agonists) post-dosing was analysed for exposure.
Analogues were tested for subchronic effect in two different set-ups. […] The Cmax and Cmin animals were included in separate treatment groups and evaluated head-to-head for glucose tolerance and additional metabolic parameters at the end of the treatment period. […] IPGTT was performed as described above, but additionally blood was sampled from vena facialis of conscious animals at t = 210 min relative to the administration of glucose for exposure analysis.
IPGTT was performed as described above.

Mouse GLP-1R = target: T1, Mouse GLP-1R (Mus musculus, UniProt O35659); test: Receptor potency, CRE-luciferase functional assay in BHK cells; type: cell-based; details: Mouse receptors, whole BHK cells, 3 h 37°C, value (95% CI)
T1 construct: a plasmid encoding either the glucagon receptor or the GLP-1 receptor from the relevant species; expressed in transfected cells
T1 sequence (O35659 22-463): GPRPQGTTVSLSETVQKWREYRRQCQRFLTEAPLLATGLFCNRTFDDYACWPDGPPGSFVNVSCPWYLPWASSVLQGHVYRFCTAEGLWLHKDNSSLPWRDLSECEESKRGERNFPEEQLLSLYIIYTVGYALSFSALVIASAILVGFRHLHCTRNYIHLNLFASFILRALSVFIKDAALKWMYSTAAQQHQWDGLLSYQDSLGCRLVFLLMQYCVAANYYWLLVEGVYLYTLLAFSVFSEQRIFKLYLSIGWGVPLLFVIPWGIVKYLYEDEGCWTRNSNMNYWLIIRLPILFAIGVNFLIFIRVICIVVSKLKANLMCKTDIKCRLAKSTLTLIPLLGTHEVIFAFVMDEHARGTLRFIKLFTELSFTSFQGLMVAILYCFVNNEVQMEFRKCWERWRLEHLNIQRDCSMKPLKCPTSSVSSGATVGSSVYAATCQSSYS
Description: (§1) The binding assay was performed on cell membranes in the presence of 1% (v/v) species-specific heparin-treated pooled plasma (Bioreclamation IVT, Westbury, NY) diluted in assay buffer (50 mM HEPES supplemented with 5 mM EGTA, 5 mM MgCl2, and 0.005% (v/v) Tween 20, pH7.4). […] Cells stably expressing an individual receptor of interest were grown at 5% CO2, 37°C in DMEM (supplemented with 10% FCS, 0.5 mg/ml G418 and 0.3 mg/ml hygromycin). Membrane preparations were made from cells harvested at approximately 80% confluence, washed and homogenized in 20 mM HEPES with 0.1 mM EDTA, pH 7.4. Protein concentration was determined, and the membranes were stored at -80°C until use. The membrane binding assay was performed in a 96-well OptiPlate (PerkinElmer) in a total volume of 200 μl. Test compounds were dissolved in 80% DMSO and further diluted in assay buffer. 50 μl of diluted plasma was added to the assay plate wells followed by addition of test compounds (25 μl), cell membranes (50 μl, 0.06 mg/ml), SPA beads (20 mg/ml in assay buffer) and radioligand (60,000 cpm/well, corresponding to 0.06 nM; 2200 Ci/mmol. Each assay plate was incubated for 2 h at 30°C, centrifuged at 1500 rpm for 10 minutes and counted in a TopCount NXT instrument (PerkinElmer).
Functional assays were performed on whole cells in the absence or presence of 100% species-specific heparin-treated pooled plasma (Bioreclamation IVT). […] The cells were cultured with DMEM (supplemented with GlutaMAX, 10% FBS, 0.5 mg/ml G418 and 0.3 mg/ml hygromycin) at 5% CO2 and 37°C. At approximately 80–90% confluence, cells were washed with PBS and harvested with Versene (Life Technologies, Carlsbad, CA). The cells were counted and plated into 96-well microtiter plates coated with poly-D-Lys (Corning BioCoat) with 5,000 cells/well and thereafter incubated overnight in growth media. The next day the media was changed to assay buffer (DMEM without phenol red, supplemented with GlutaMAX, 10 mM HEPES, 1% ovalbumin and 0.1% Pluronic F-68) or to 100% plasma. In the absence of plasma, compounds were diluted in assay buffer. In assays tested with plasma, compounds were diluted in pure plasma. Buffer was removed from the plates and 50 μl of test compound dilutions was added to the plates followed by 50 μl of plasma or the same buffer used for compound dilution. The assay plates were incubated for 3 h in a 5% CO2 incubator at 37°C. The plates were then transferred to room temperature for 15 min and 100 μl Steadylite Plus reagent (PerkinElmer) was added to each well. The plates were shaken for 30 min at room temperature while protected from light after which luminescence was measured.
(§2) For the receptor binding assays, logIC50 values were calculated using non-linear regression analysis. The error estimation was reported as the 95% confidence interval. […] The calculations were performed in GraphPad Prism 6.4 (GraphPad, San Diego, CA) and error estimation was expressed as the 95% confidence interval. […] Averages, error estimation, ratios and plasma shifts were all calculated on logIC50 or logEC50 values and transformed to the anti-log values for reporting purposes.

Rat GCGR = target: T2, Rat GCGR (Rattus norvegicus, UniProt P30082); test: Receptor binding, SPA competitive binding assay; details: SPA competitive binding on BHK cell membranes, [125I]-glucagon tracer, 1% species specific plasma, 2 h 30°C; value (95% CI)
T2 construct: a plasmid encoding either the glucagon receptor or the GLP-1 receptor from the relevant species; expressed in transfected cells
Description: as §1, §2

[1] = after 4 weeks daily s.c. dosing, Cmin (24 h post dosing)

T2 sequence (P30082 27-485): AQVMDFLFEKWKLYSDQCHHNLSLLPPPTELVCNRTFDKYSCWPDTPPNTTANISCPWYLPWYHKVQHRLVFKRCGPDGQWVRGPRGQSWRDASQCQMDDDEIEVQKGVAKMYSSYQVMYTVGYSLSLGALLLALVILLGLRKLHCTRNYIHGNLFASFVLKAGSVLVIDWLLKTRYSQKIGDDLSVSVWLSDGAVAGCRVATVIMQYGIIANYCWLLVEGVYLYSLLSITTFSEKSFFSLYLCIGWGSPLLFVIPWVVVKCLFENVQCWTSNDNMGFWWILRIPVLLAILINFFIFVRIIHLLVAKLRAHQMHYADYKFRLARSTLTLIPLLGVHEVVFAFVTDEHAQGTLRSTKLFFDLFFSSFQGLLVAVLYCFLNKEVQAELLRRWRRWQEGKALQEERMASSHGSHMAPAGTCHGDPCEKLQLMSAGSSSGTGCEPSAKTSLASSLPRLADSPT

CC(C)C[C@H](NC(=O)[C@H](CC(=O)O)NC(=O)[C@H](CC(C)C)NC(=O)[C@H](Cc1ccc(O)cc1)NC(=O)[C@H](CCCCN)NC(=O)[C@H](CO)NC(=O)[C@H](CC(C)C)NC(=O)[C@H](CC(=O)O)NC(=O)[C@H](CO)NC(=O)[C@@H](NC(=O)[C@H](Cc1ccccc1)NC(=O)[C@@H](NC(=O)CNC(=O)[C@H](CCC(N)=O)NC(=O)C1(NC(=O)[C@@H](N)Cc2c[nH]cn2)CCC1)[C@@H](C)O)[C@@H](C)O)C(=O)N[C@@H](CCCNC(=N)N)C(=O)N[C@@H](CCCNC(=N)N)C(=O)N[C@@H](C)C(=O)N[C@@H](CCCNC(=N)N)C(=O)N[C@@H](CC(=O)O)C(=O)N[C@@H](Cc1ccccc1)C(=O)N[C@H](C(=O)N[C@@H](CCC(N)=O)C(=O)N[C@@H](Cc1c[nH]c2ccccc12)C(=O)N[C@@H](CC(C)C)C(=O)N[C@@H](CC(C)C)C(=O)N[C@@H](CCCCNC(=O)CC[C@H](NC(=O)CC[C@H](NC(=O)COCCOCCNC(=O)COCCOCCNC(=O)CC[C@H](NC(=O)CC[C@H](NC(=O)CCCCCCCCCCCCCCCCC(=O)O)C(=O)O)C(=O)O)C(=O)O)C(=O)O)C(=O)N[C@H](C(N)=O)[C@@H](C)O)C(C)C [NN1151] (H-H[Ac4c]QGTFTSDLSKYLDLRRARDFVQWLLK([γGlu-γGlu-AEEA-AEEA-γGlu-γGlu-C18 diacid])T-NH2)
Glucose tolerance (IPGTT) vs vehicle (DIO mice; after 3 weeks daily s.c. dosing, Cmax (5 h post dosing)): improved | Basal blood glucose vs vehicle (DIO mice; [1]): at the level of vehicle treated animals | Glucose tolerance (IPGTT) vs vehicle (DIO mice; [1]): significantly impaired | EC50 (Mouse GLP-1R; GLP-1R EC50, pM (95% CI) 0% plasma, 0% plasma): 1.13 pM | EC50 (Mouse GLP-1R; GLP-1R EC50, pM (95% CI) 100% plasma, 100% species-specific plasma): 161 pM | IC50 (Rat GCGR): 270 pM
